The record followed here is PubChem BioAssay (NCI).

The structures appear in SMILES notation.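 These data come from cells grown in 96-well plates and exposed to compound for 48 hours at five concentrations. GI50 marks 50% less growth. The concentration for full growth arrest is given as TGI.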

Some test systems named below: CCRF-CEM leukemia; DU-145 prostate; HS 578T breast; K-562 leukemia; MDA-MB-231 breast; SF-268 CNS; SNB-19 CNS; TK-10 renal; UO-31 renal; A498 renal.
What all share (assay): growth of human tumour cells (NCI), 48 h

For `CCOP(=O)(OCC)C(NC(c1ccccc1)c1ccccc1)c1ccccc1` (centres undefined), the GI50 in the test on CCRF-CEM leukemia was 18.2 µM; with DU-145 prostate it was 15 µM; in the test with HS 578T breast, 1.89 µM; in the test on K-562 leukemia, 7.4 µM; in the test on MDA-MB-231 breast, 10.6 µM; in the test on SF-268 CNS, 15.6 µM. Besides, the GI50 with SNB-19 CNS was 48.1 µM; in the test on TK-10 renal, 14.7 µM; with UO-31 renal, 14.9 µM. The TGI is 58.8 µM in the test with CCRF-CEM leukemia; 30 µM with DU-145 prostate; 13.5 µM with HS 578T breast; 22.2 µM in the test with K-562 leukemia; 26.3 µM in the test on MDA-MB-231 breast; 35.4 µM with SF-268 CNS. Besides, the TGI in the test on SNB-19 CNS was more than 100 µM; with TK-10 renal, 28.2 µM; in the test on UO-31 renal it was 30.2 µM.
Turning to `O=C1CCC(Cc2ccc(Cl)cc2Cl)C(=O)N1` (centres undefined), the TGI with CCRF-CEM leukemia, with DU-145 prostate, in the test with HS 578T breast, in the test with K-562 leukemia, in the test on MDA-MB-231 breast and with SF-268 CNS was more than 100 µM in each case. The TGI in the test with SNB-19 CNS, in the test on TK-10 renal and with UO-31 renal was more than 100 µM in each case.
Take `Cc1c(C#N)cccc1-c1cc(-c2cn(Cc3cccc(C(C)(C)O)n3)nn2)nc(N)n1`: the GI50 with CCRF-CEM leukemia was 16.3 µM; in the test with DU-145 prostate, 37.1 µM; in the test on HS 578T breast it was 25.6 µM; in the test with K-562 leukemia, 13.4 µM; in the test on MDA-MB-231 breast, 15.7 µM; with SF-268 CNS, 45.4 µM. Moreover, the GI50 in the test with SNB-19 CNS was 47.4 µM; in the test with TK-10 renal it was 18.2 µM; in the test on UO-31 renal it was 10.7 µM. Also, the TGI with CCRF-CEM leukemia, with DU-145 prostate, in the test with HS 578T breast, with K-562 leukemia, with MDA-MB-231 breast and in the test on SF-268 CNS was more than 100 µM in each case. The TGI in the test on SNB-19 CNS, in the test on TK-10 renal and with UO-31 renal was more than 100 µM throughout.
Consider `Nc1ccc2c(SCCSc3c4ccccc4nc4cc(N)ccc34)c3ccccc3nc2c1`, for which the TGI with CCRF-CEM leukemia, with DU-145 prostate, with HS 578T breast, with K-562 leukemia, in the test with MDA-MB-231 breast and in the test on SF-268 CNS was more than 100 µM each time. For the same compound, the TGI with SNB-19 CNS, with TK-10 renal and with UO-31 renal was more than 100 µM each time.
Take `Cc1cn(C2CC(F)C(CO)O2)c(=O)[nH]c1=O` (centres undefined): the GI50 in the test on CCRF-CEM leukemia, in the test on DU-145 prostate, in the test with HS 578T breast, in the test on K-562 leukemia, in the test on MDA-MB-231 breast and in the test on TK-10 renal was more than 100 µM throughout. For the same compound, the GI50 with UO-31 renal is more than 100 µM. Moreover, the TGI with CCRF-CEM leukemia, with DU-145 prostate, with HS 578T breast, in the test with K-562 leukemia, in the test with MDA-MB-231 breast and with TK-10 renal was more than 100 µM throughout. In the test on UO-31 renal, this compound displayed a TGI of more than 100 µM.
For `CCCC1c2c(ccc3ccccc23)Oc2ccc3ccccc3c21`, the TGI in the test with A498 renal is 78 µM; with DU-145 prostate, more than 100 µM; in the test on HS 578T breast it was more than 100 µM; in the test on MDA-MB-231 breast, more than 100 µM; with SF-268 CNS it was more than 100 µM; in the test with SNB-19 CNS, more than 100 µM. The TGI in the test on TK-10 renal was 98.2 µM; with UO-31 renal, more than 100 µM.
Take `COc1cc2oc(=O)ccc2cc1C1OC(=O)C2OC21C` (centres undefined): the TGI in the test with CCRF-CEM leukemia, in the test with DU-145 prostate, in the test on HS 578T breast, in the test on K-562 leukemia, with MDA-MB-231 breast and with SF-268 CNS was more than 100 µM in each case. Moreover, the TGI in the test on SNB-19 CNS, in the test with TK-10 renal and in the test with UO-31 renal was more than 100 µM each time.
On to `N[C@@H](Cc1c[nH]c2ccccc12)C(=O)NC1CCN(C(=O)c2c[nH]c3ccccc23)CC1`, for which the GI50 was more than 100 µM in the test with CCRF-CEM leukemia; 72.2 µM in the test with DU-145 prostate; 71.3 µM in the test on HS 578T breast; more than 100 µM with K-562 leukemia; 75.4 µM with MDA-MB-231 breast; more than 100 µM in the test with SF-268 CNS. Further, the GI50 in the test on SNB-19 CNS was 99.8 µM; with TK-10 renal, more than 100 µM; with UO-31 renal, more than 100 µM. For the same compound, the TGI in the test with CCRF-CEM leukemia, in the test with DU-145 prostate, in the test with HS 578T breast, with K-562 leukemia, in the test on MDA-MB-231 breast and with SF-268 CNS was more than 100 µM throughout. Also, the TGI in the test with SNB-19 CNS, with TK-10 renal and with UO-31 renal was more than 100 µM each time.
On to `OCCCCC#Cc1ccccc1C#Cc1ccccc1`, for which the GI50 was 5.22 µM with DU-145 prostate; 15.6 µM in the test with HS 578T breast; 22.1 µM with K-562 leukemia; 4.29 µM in the test on MDA-MB-231 breast; 16.8 µM in the test with SF-268 CNS; 0.153 µM in the test with SNB-19 CNS. The GI50 in the test with TK-10 renal is 13.2 µM; with UO-31 renal, 28.4 µM. In addition, the TGI with DU-145 prostate is 20.2 µM; with HS 578T breast, 39.6 µM; in the test on K-562 leukemia, more than 100 µM; in the test on MDA-MB-231 breast it was 14.1 µM; with SF-268 CNS it was 37.6 µM; in the test with SNB-19 CNS, 37.2 µM. The values for the TGI with TK-10 renal and with UO-31 renal were 26.3 µM and more than 100 µM, respectively.
